Data on 2 molecules can be found in patent US6525017B1, “Using glutathiane to protect neurons from injury” (The Children's Medical Center Corporation, priority 1989, dated 2003).

One assay has as its system NMDA receptor. Put plainly: Whole-cell patch-clamp NMDA responses in cultured rat cortical neurons. Format: cell-based. The method, then: The effects of reduction and oxidation on the NMDA response were further examined in cultured mammalian central neurons with the use of patch electrodes. Experiments were performed on neurons in primary cultures of CD rat neocortex derived from embryonic day 16 fetuses and plated onto glass coverslips coated with collagen and poly-L-lysine. The growth medium consisted of a v/v mixture of 80% DMEM (Sigma D5530), 10% F-12 (Sigma), 10% heat-inactivated, iron-supplemented serum (Hyclone), with 25 mM HEPES, 24 U/ml penicillin, and 24 μg/ml streptomycin, supplemented to 2 mM glutamine. Recordings were performed on 3- to 13-week-old cultures, and neurons studied ranged from 12 to 18 μm in diameter. The extracellular solution for the physiological experiments contained 137 mM NaCl, 1 mM NaHCO3, 0.34 mM NaHPO4, 5.36 mM KCl, 0.44 mM KH2PO4, 2.5 mM CaCl2, 5 mM HEPES-NaOH, 22.2 mM dextrose, 0.001% (v/v) phenol red, adjusted to pH 7.2 with 0.3 N NaOH (no added magnesium, except where noted). Tetrodotoxin (TTX) (1 μM) was routinely added to reduce synaptic activity. The intracellular (pipette) solution contained 120 mM CsCl, 20 mM TEA-Cl, 2 mM MgCl2, 1 mM CaCl2, 1.5-2.25 mM EGTA, and 10 mM HEPES-NAOH, adjusted to pH 7.2 with concentrated TEA-OH. Electrophysiological measurements were performed at 33° C.-35° C. with patch electrodes (4-8 MΩ), essentially as described in Lipton et al. J. Physiol 385:361, 1987. Lipton et al. 1987 includes the following disclosure of electrophysiological recordings by patch clamp from solitary neurons:
“. . . patch-clamp recordings were made . . . following the methods of Hamill et al. (1981) using an EPC-7 amplifier (List Electronic, Darmstadt, F.R.G.). Patch electrodes had resistances of 3-5 MΩ when filled with Na^+ or K^+ saline. Patch electrodes were used to record whole-cell currents under voltage clamp as well as single-channel currents from patches of membrane excised from the cell. The indifferent electrode was a Ag-AgCl wire connected to the culture dish via an agarose bridge. Holding and command potentials (VH and Vc, respectively (were generated by a digital-to-analog converter (Cheshire Data, Hamden, Conn., U.S.A.) interfaced with a PDP 11/23 or 11/73 computer (Digital Equipment Corp., Maynard, Mass., U.S.A.). Data collection was also controlled by the computer; data were sampled and digitized with a 12-bit, 125 kHz analog-to-digital converter (Data Translation, Marlboro, Mass., U.S.A., Model DT2782DMA) and viewed on a Hewlett-Packard digital display (Model 1345A). The sampling rate was set at 10 μs to 50 ms depending on the level of analysis. Using the amplifier test circuit, the digitized data were accurate to within 1%. The signals were low-pass filtered at a setting appropriate to the sampling frequency (Ithaco, Ithaca, N.Y., U.S.A., Model 4302 with a Bessel frequency cut-off characteristic of 48 dB/octave). Leakage currents and liquid junction potentials were corrected as described in Fenwick, Marty & Neher [J. Physiol. 331:577-597] (1982a). Using the EPC-7 circuit, analog compensation of the series resistance was applied. This ensured a relatively small error due to the voltage drop across the series resistance (less than or equal to that calculated by Marty & Neher, 1985 [J. Physiol. 367:117-141]). Data were stored on a 30 megabyte Winchester disk (Data Systems Design, San Jose, Calif., U.S.A., Model 880). […]

Another assay relates to nicotinic receptor. Put plainly: Nicotinic receptor function in intact chick retina. Format: cell-based. As for the experimental part: Eyecups were obtained from 2-to 5-day-old chicks and continuously superfused at 20-25° C. at a rate of 8 ml/min with Tyrodes solution (130 mM NaCl, 3 mM KCl, 17 mM dextrose, 20 mM NaHCO3, 0.01% w/v phenol red; bubbled with a gas mixture of 95% O2 and 5% CO2) containing 5 mM MgCl2 to reduce synaptic activity. […] Traces were triggered by the opening of two solenoid valves that shunted approximately 200 μl of agonist (1, 1-dimethyl-4-phenyl-piperazinium iodide, DMPP or NMDA) into the perfusion line, Agonists reached the preparation approximately 7s later. The resulting responses originated, at least in part, in the retinal ganglion cells. Some experiments were performed in the presence of 10 μg/ml catalase and 1 μg/ml superoxide dismutase. Antagonists, reducing agents, or oxidizing agents were introduced directly via the perfusate.
The action of DTT lasted for tens of minutes after the reducing agent was removed; any small decrement in the potentiation could be reversed with additional DTT treatment. The function of the nicotinic receptors was restored upon oxidation with 0.1-1.0 mM DTNB (applied for 5 min). […] The reduction and oxidation effects could be alternated repeatedly for as long as the preparation remained stable, which was often more than 9 hr.

Structures are written as SMILES.

Regarding `O=C(O)c1cc(SSc2ccc([N+](=O)[O-])c(C(=O)O)c2)ccc1[N+](=O)[O-]` [DTNB, 5′-5′-dithiobis-2-nitrobenzoic acid], the “decrease of NMDA response” value in the assay on NMDA receptor (1-3 min treatment with 0.1-1.0 mM DTNB, mean ± spread) is recorded as 22.9%±12.9%. Further, in the assay with NMDA receptor (1-3 min treatment with 0.1-1.0 mM DTNB, range), the “decrease of NMDA response, range” value was 0%-39.5%. The “nicotinic receptor function upon oxidation” value in the assay on nicotinic receptor (0.1-1.0 mM DTNB applied for 5 min, after DTT) was “restored”.

As to `O[C@@H](CS)[C@@H](O)CS` [DTT, dithothreitol], the “voltage-clamped NMDA response, % of control (potentiation)” value with NMDA receptor (10-100 μM NMDA + 1 μM glycine, 1-5 min treatment with 0.5-2.0 mM DTT, mean ± spread) was 250%±140%. In the assay with NMDA receptor (10-100 μM NMDA + 1 μM glycine, 1-5 min treatment with 0.5-2.0 mM DTT, range), the “voltage-clamped NMDA response, % of control, range” value is listed as 220%-330%. Further, the “NMDA response on reapplication of DTT after oxidation” value in the assay on NMDA receptor (after DTNB oxidation) is given as “always restored the NMDA response to greater than control levels”. Besides, the “nicotinic receptor function after reduction” value with nicotinic receptor (DTT 1-2 mM applied for 10-25 min) was “blocks nicotinic receptor function”.
